Measurements published in article PMC8016481, “Tachykinin signaling inhibits task-specific behavioral responsiveness in honeybee workers” (eLife, 2021).

Key:
[1] = test system: worker bees (Apis mellifera ligustica); assay: Proboscis extension response (PER) after TRP2 injection; format: in vivo; conditions: for reduction of SRS vs ddH2O, Z: Mann-Whitney U test; for PER ratio: 1 μl of 1 μg/μl into head, 1 hr after injection
Protocol: To investigate the sucrose responsiveness, bees were assayed using an ascending order of sucrose concentrations: 0.1%, 0.3%, 1%, 3%, 10%, and 30% (weight/weight). A small droplet of each solution was touched to the bees’ antennae for 3 s and the extension of the proboscis was monitored during this time. The interval between each sucrose solution trial was 5 min to exclude sensitization or habituation effects. The total number of PER responses after stimulation with the six different sucrose concentrations was combined into an SRS of a bee ([Pankiw et al., 2001]; [Scheiner et al., 2002]; [Scheiner et al., 2003]). The SRSs of the three behavioral phenotypes in the same species were compared using Kruskal-Wallis tests with Bonferroni correction. Pairwise Mann-Whitney U tests were used for comparing the same phenotype from two honeybee species. The sucrose responsiveness for specific sucrose concentrations was further compared between different groups with independent chi-square tests.
To test pollen stimulation, fresh pollen loads that had been removed from the leg of randomly selected PFs of the test group were used: AML were tested with pollen collected by AML foragers and ACC with pollen collected by ACC foragers. These loads contained a mixture of different pollen, predominated by black locust (R. pseudoacacia). As a control for mechanical stimulation, each bee had both antennae first touched with a piece of filter paper and spontaneous responders were excluded. Subsequently, both antennae of each bee were gently touched with a pollen load and PER responses were recorded. The pollen responsiveness was compared with independent chi-square tests between different groups.
To test responsiveness to larva, 1-day-old larvae from each honeybee species were collected, briefly rinsed in distilled water to remove royal jelly residue and dried on a filter paper. As before, both antennae of bees were touched with a piece of filter paper first and spontaneous responders were excluded, then PERs in response to a larva touching the antennae were recorded. The responsiveness to larvae was compared with independent chi-square tests between different groups. Statistical analyses were conducted using SPSS Statistics 20.0 (IBM, USA).
To confirm the function of TRP on task-specific responsiveness, NBs, PFs, and NFs of AML were injected with TRP2 and tested for their PER response to sucrose solution, pollen, and larva. About 150 bees of each behavioral phenotype were collected in the morning, then harnessed, fed and placed in a dark incubator as described in 'Comparative PER experiments' section. […] Bees injected with ddH2O were used as control. All injected bees were put back to the dark incubator and 1 hr after injection all surviving bees were assayed for their PER to stimulations of sucrose solution, pollen, and larva as described in 'Comparative PER experiments' section. Each experiment was performed with a new set of bees containing about 55 individuals per experimental and control group.
The sucrose responsiveness was further compared between different groups at each specific sucrose concentration with independent chi-square tests. […] All statistical analyses were performed with SPSS Statistics 20.0 (IBM).

## ALMGFQGVRa [TRP2, honeybee tachykinin-related peptide 2, synthesized by SynPeptide]
TRPR
  time by which ERK phosphorylation is near basal levels: ≤ 90 min
  time of maximal ERK phosphorylation: 2 min
[1]; NBs, chi-square test
  effect on larva responsiveness vs ddH2O, χ^2: 6.1
[1]; NBs, vs ddH2O
  effect on larva responsiveness: significantly affected the responsiveness of NBs
  effect on sucrose responsiveness: did not show significant responsiveness changes to sucrose
[1]; NFs and PFs, vs ddH2O
  effect on larva responsiveness: not NFs or PFs
[1]; NFs
  reduction of SRS vs ddH2O, Z: 2.3
[1]; NFs, vs ddH2O
  effect on sucrose responsiveness: significantly reducing PER responses to all sucrose concentrations except 0.1%
[1]; PFs
  reduction of SRS vs ddH2O, Z: 2.2
[1]; PFs, chi-square test
  decrease of pollen responsiveness vs ddH2O, χ^2: 6.7
[1]; PFs, vs ddH2O
  effect on pollen responsiveness: significantly decreased responsiveness to pollen loads
  effect on sucrose responsiveness: significantly reducing PER responses to all sucrose concentrations used
[1]; nectar foragers, larva stimulus
  PER ratio: 11.54%
[1]; nectar foragers, pollen stimulus
  PER ratio: 15.38%
[1]; nectar foragers, sucrose 0.1%
  PER ratio: 10.34%
[1]; nectar foragers, sucrose 0.3%
  PER ratio: 10.34%
[1]; nectar foragers, sucrose 1.0%
  PER ratio: 12.07%
[1]; nectar foragers, sucrose 3.0%
  PER ratio: 13.79%
[1]; nectar foragers, sucrose 10.0%
  PER ratio: 20.69%
[1]; nectar foragers, sucrose 30.0%
  PER ratio: 25.86%
[1]; nurse bees, larva stimulus
  PER ratio: 18.18%
[1]; nurse bees, pollen stimulus
  PER ratio: 12.73%
[1]; nurse bees, sucrose 0.1%
  PER ratio: 15.38%
[1]; nurse bees, sucrose 0.3%
  PER ratio: 19.23%
[1]; nurse bees, sucrose 1.0%
  PER ratio: 25.00%
[1]; nurse bees, sucrose 3.0%
  PER ratio: 30.77%
[1]; nurse bees, sucrose 10.0%
  PER ratio: 40.38%
[1]; nurse bees, sucrose 30.0%
  PER ratio: 48.08%
[1]; pollen foragers, larva stimulus
  PER ratio: 22.64%
[1]; pollen foragers, pollen stimulus
  PER ratio: 16.98%
[1]; pollen foragers, sucrose 0.1%
  PER ratio: 16.98%
[1]; pollen foragers, sucrose 0.3%
  PER ratio: 20.75%
[1]; pollen foragers, sucrose 1.0%
  PER ratio: 22.64%
[1]; pollen foragers, sucrose 3.0%
  PER ratio: 28.30%
[1]; pollen foragers, sucrose 10.0%
  PER ratio: 32.08%
[1]; pollen foragers, sucrose 30.0%
  PER ratio: 47.17%
